# Reference: patent publication US20080299140A1, “Immunogenic Composition and Peptide Sequences for Prevention and Treatment of an Hsv Condition” (priority 2002, published 2008)
# Numbering of substitutions follows the chain as printed. Like-named read-outs stand apart in the source and are kept apart here.
# Tests used:
# [1] = molecular target: T1, DR1=HLA-DR(α1*0101,α1*0101) (Homo sapiens, UniProt P01903+P01911, A100R/D57E/F55L/F60I/F76Y/I96L/L162R/M171V/P40L/Q125E/R42F/V115G/Y59C); experiment: biochemical; format: binding
# T1 construct: endogenous in cells; host or cells: EBV homozygous human B cell line
# [2] = molecular target: T2, DR3=HLA-DR(α1*0101,α1*0301) (Homo sapiens, UniProt P01903+P01911, A100K/A102G/A103R/A169T/F55Y/I96L/K41T/L162R/M171V/P40S/Q125H/Q178H/Q39Y/R42S/S66N/T106N/T262R/W38E/Y61H); experiment: HLA-DR specific binding assay, DR3
# T2 construct: endogenous in cells; host or cells: STEILIN (EBV homozygous B cell line)
# [3] = molecular target: T3, DR4=HLA-DR(α1*0101,α1*0401) (Homo sapiens, UniProt P01903+P01911, A100K/A169T/F76Y/I96L/K127E/L162R/M171V/N62H/P40V/Q125Y/R42H/S133A/S149N/S66Y/V115G/V209L/W38E); experiment: biochemical; format: binding
# T3 construct: endogenous in cells; host or cells: BOLETH (EBV homozygous B cell line)
# [4] = molecular target: T4, DR7=HLA-DR(α1*0101,α1*0701) (Homo sapiens, UniProt P01903+P01911, A100R/A102G/A103Q/D57E/D86V/E43K/F76Y/K127E/L162R/M171V/P40G/Q125H/Q99D/R33Q/R42Y/R54Q/S133A/S66F/T210M/V115G/Y107V/Y59L/Y89S); experiment: HLA-DR specific binding assay, DR7
# T4 construct: endogenous in cells; host or cells: EBV homozygous human B cell line
# [5] = molecular target: T5, DR11=HLA-DR(α1*0101,α1*1101) (Homo sapiens, UniProt P01903+P01911, A100R/A169T/A87E/I96F/K41T/L162R/M171V/P40S/Q125H/Q178H/Q39Y/Q99D/R42S/S66Y/T262R/V115G/W38E); experiment: biochemical; format: binding
# T5 construct: endogenous in cells; host or cells: SWEIG (EBV homozygous B cell line)
# [6] = molecular target: T6, DR13=HLA-DR(α1*0101,α1*1301) (Homo sapiens, UniProt P01903+P01911, A100E/A169T/K41T/L162R/M171V/P40S/Q125H/Q178H/Q39Y/Q99D/R42S/S66N/T262R/W38E/Y61H); experiment: HLA-DR specific binding assay, DR13
# T6 construct: endogenous in cells; host or cells: 0206AD (EBV homozygous B cell line)
# [7] = molecular target: T7, DR15=HLA-DR(α1*0101,α1*1501) (Homo sapiens, UniProt P01903+P01911); experiment: HLA-DR specific binding assay, DR15
# T7 construct: endogenous in cells; host or cells: EBV homozygous human B cell line
# [8] = molecular target: T8, DRB3=HLA-DR(α1*0101,α3*0101) (Homo sapiens, UniProt P01903+P79483); experiment: HLA-DR specific binding assay, DRB3 (DR52)
# T8 construct: endogenous in cells; host or cells: STEILIN or 0206AD (both typed DRB3*0101)
# [9] = molecular target: T9, DRB4=HLA-DR(α1*0101,α4*0101) (Homo sapiens, UniProt P01903+P13762, G164S); experiment: HLA-DR specific binding assay, DRB4 (DR53)
# T9 construct: endogenous in cells
# [10] = molecular target: T10, DRB5=HLA-DR(α1*0101,α5*0101) (Homo sapiens, UniProt P01903+Q30154); experiment: biochemical; format: binding; conditions: Table V; […]; read-out: IC50 DRB5
# T10 construct: endogenous in cells; host or cells: EBV homozygous human B cell line
# [11] = molecular target: T11, DP401=HLA-DP(α1*0101,α1*0401) (Homo sapiens, UniProt P04440+P20036); experiment: biochemical; format: binding
# T11 sequence (P20036 32-260 limits assumed): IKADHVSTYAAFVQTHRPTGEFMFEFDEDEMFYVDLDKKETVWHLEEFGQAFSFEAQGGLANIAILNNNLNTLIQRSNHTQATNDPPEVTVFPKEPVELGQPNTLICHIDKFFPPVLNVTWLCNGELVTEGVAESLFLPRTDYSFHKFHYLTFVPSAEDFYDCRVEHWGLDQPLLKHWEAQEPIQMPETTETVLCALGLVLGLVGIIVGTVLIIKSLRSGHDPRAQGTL
# T11 sequence (P04440 30-258): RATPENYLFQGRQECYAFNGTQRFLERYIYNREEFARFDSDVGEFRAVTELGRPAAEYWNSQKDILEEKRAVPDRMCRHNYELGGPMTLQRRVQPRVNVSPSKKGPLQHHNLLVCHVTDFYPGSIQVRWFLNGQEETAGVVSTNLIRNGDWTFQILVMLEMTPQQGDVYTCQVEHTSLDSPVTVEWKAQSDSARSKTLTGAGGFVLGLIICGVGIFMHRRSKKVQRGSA
# [12] = molecular target: T12, DP402 DP (α1*0101, α1*0402) (Homo sapiens, UniProt P04440+P20036, A65V/A84D/A85E/L207M); experiment: biochemical; format: binding
# T12 sequence (P20036 29-260): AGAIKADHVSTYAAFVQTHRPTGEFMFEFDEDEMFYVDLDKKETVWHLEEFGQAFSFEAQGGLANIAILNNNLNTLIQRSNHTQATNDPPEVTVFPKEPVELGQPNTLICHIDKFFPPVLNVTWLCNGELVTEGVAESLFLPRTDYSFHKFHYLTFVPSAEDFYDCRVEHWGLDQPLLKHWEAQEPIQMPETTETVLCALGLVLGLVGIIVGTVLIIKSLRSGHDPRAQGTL
# T12 sequence (P04440 30-258 A65V/A84D/A85E): T11 sequence (P04440 30-258) with A36V, A55D, A56E
# [13] = tested on: HLA-DR and HLA-DP molecules; experiment: MHC class II binding assays, panel of twelve HLA class II molecules (number of alleles bound); conditions: number of the twelve class II MHC alleles bound; title: Threshold 600 nM/5 alleles
# [14] = Table V, […], read-out: IC50 DR1
# [15] = […], Class II MHC allele DR1, read-out: IC50, DR1
# [16] = IC50, DR3, Class II MHC allele DR3
# [17] = Class II MHC allele DR4, read-out: IC50, DR4
# [18] = Table V, […], read-out: IC50 DR4
# [19] = Class II MHC allele DR11, read-out: IC50, DR11
# [20] = Table V, […], read-out: IC50 DR11
# [21] = IC50, DRD3, Class II MHC allele DRD3 (so in the source)
# T8 sequence (P79483 30-266, other chains not shown): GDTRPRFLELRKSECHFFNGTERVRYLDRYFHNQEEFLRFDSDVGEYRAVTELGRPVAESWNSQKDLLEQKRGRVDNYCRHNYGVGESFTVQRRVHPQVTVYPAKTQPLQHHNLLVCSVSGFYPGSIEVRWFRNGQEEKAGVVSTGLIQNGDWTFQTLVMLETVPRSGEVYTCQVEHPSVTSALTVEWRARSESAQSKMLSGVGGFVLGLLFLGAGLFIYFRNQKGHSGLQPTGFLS
# T10 sequence (Q30154 30-266, other chains not shown): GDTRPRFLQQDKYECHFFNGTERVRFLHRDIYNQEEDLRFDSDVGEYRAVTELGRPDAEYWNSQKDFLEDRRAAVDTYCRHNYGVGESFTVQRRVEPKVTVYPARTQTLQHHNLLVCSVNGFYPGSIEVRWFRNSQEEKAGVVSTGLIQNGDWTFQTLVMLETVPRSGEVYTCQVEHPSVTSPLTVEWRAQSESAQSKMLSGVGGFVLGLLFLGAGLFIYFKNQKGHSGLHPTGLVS
SMILES,"IC50 [1, 14] [nM]","IC50 [1, 15] [nM]","IC50 [2, 16] [nM]","IC50 ([2]; IC50 DR3, Table V, […]) [nM]","IC50 [3, 17] [nM]","IC50 [3, 18] [nM]",IC50 [4] [nM],"IC50 [5, 19] [nM]","IC50 [5, 20] [nM]",IC50 [6] [nM],IC50 [7] [nM],"IC50 [8, 21] [nM]","IC50 ([8]; IC50 DRB3, Table V, […]) [nM]",IC50 [9] [nM],IC50 [10] [nM],IC50 ([11]; Class II MHC allele DP401) [nM],"IC50 ([11]; Table V, […]) [nM]",IC50 ([12]; Class II MHC allele DP402) [nM],"IC50 ([12]; Table V, […]) [nM]",Range [13],also measured
CSCC[C@H](NC(=O)[C@H](CCCCN)NC(=O)[C@H](CC(C)C)NC(=O)[C@H](CO)NC(=O)[C@H](C)NC(=O)[C@H](CC(=O)O)NC(=O)[C@@H](NC(=O)[C@H](CC(C)C)NC(=O)[C@H](C)NC(=O)[C@H](Cc1ccc(O)cc1)NC(=O)[C@@H](N)CCCCN)C(C)C)C(=O)N[C@@H](C)C(=O)N[C@@H](CC(=O)O)C(=O)N1CCC[C@H]1C(=O)N[C@@H](CC(N)=O)C(=O)N[C@@H](CCCNC(=N)N)C(=O)N[C@@H](Cc1ccccc1)C(=O)N[C@@H](CCCNC(=N)N)C(=O)NCC(=O)N[C@@H](CCCCN)C(=O)N[C@@H](CC(=O)O)C(=O)N[C@@H](CC(C)C)C(=O)N1CCC[C@H]1C(=O)O [HSV 29],1230,1230,120,120,82,82,894,5250,5250,> 100000,24500,1400,1400,52500,8,17500,17500,1630,1630,3,"IC50 ([6]; read-out: IC50, DR13, Class II MHC allele DR13): > 100000 nM"
CC[C@H](C)[C@H](NC(=O)[C@H](CCCCN)NC(=O)[C@@H](NC(=O)[C@H](CC(C)C)NC(=O)[C@H](CCCNC(=N)N)NC(=O)[C@H](CC(C)C)NC(=O)[C@H](Cc1ccc(O)cc1)NC(=O)[C@@H](NC(=O)CNC(=O)[C@H](C)NC(=O)[C@@H](NC(=O)[C@H](CCC(=O)O)NC(=O)[C@H](Cc1ccccc1)NC(=O)[C@H](C)NC(=O)[C@@H]1CCCN1C(=O)[C@H](C)NC(=O)[C@H](Cc1c[nH]cn1)NC(=O)[C@H](CCSC)NC(=O)[C@H](CC(C)C)NC(=O)[C@H](Cc1ccccc1)NC(=O)CNC(=O)[C@H](CC(C)C)NC(=O)[C@H](CC(N)=O)NC(=O)[C@H](CC(=O)O)NC(=O)[C@@H](N)CCC(=O)O)[C@@H](C)O)[C@@H](C)O)C(C)C)C(=O)N[C@@H](CC(N)=O)C(=O)N[C@@H](CC(=O)O)C(=O)N[C@@H](Cc1c[nH]c2ccccc12)C(=O)N[C@H](C(=O)N[C@@H](CCC(=O)O)C(=O)N[C@H](C(=O)N[C@H](C(=O)N[C@@H](CCC(N)=O)C(=O)N[C@@H](Cc1ccccc1)C(=O)O)[C@@H](C)O)[C@@H](C)CC)[C@@H](C)O [HSV 34],–,–,–,10200,–,632,316,–,175,> 100000,35,–,2020,743,85,–,115,–,164,–,IC50 ([1]; IC50 DR1): 40 nM
CC[C@H](C)[C@H](NC(=O)[C@H](CCCCN)NC(=O)[C@H](CC(C)C)NC(=O)[C@H](CO)NC(=O)[C@H](Cc1ccc(O)cc1)NC(=O)[C@@H](NC(=O)[C@H](C)NC(=O)[C@@H](NC(=O)[C@@H](NC(=O)[C@H](CCCNC(=N)N)NC(=O)[C@@H](N)CCC(N)=O)[C@@H](C)O)C(C)C)C(C)C)C(=O)N[C@@H](C)C(=O)NCC(=O)N[C@@H](Cc1c[nH]c2ccccc12)C(=O)N[C@@H](Cc1c[nH]cn1)C(=O)NCC(=O)N1CCC[C@H]1C(=O)N[C@@H](CCCCN)C(=O)N[C@@H](C)C(=O)N1CCC[C@H]1C(=O)N[C@@H](Cc1ccc(O)cc1)C(=O)N[C@H](C(=O)N[C@@H](CO)C(=O)N[C@H](C(=O)N[C@@H](CC(C)C)C(=O)N[C@@H](CC(C)C)C(=O)N1CCC[C@H]1C(=O)N1CCC[C@H]1C(=O)N[C@@H](CCC(=O)O)C(=O)N[C@@H](CC(C)C)C(=O)O)[C@@H](C)O)[C@@H](C)O [HSV 40],1160,1160,2390,2390,9920,9920,20,39,39,1590,2,> 100000,> 100000,1160,–,1360,1360,7210,7210,4,–
CC[C@H](C)[C@H](N)C(=O)N[C@H](C(=O)N[C@@H](CCC(N)=O)C(=O)N[C@@H](Cc1ccccc1)C(=O)N[C@H](C(=O)N[C@@H](CC(C)C)C(=O)N[C@@H](CCC(=O)O)C(=O)N[C@@H](Cc1c[nH]cn1)C(=O)N[C@@H](CCCNC(=N)N)C(=O)N[C@@H](C)C(=O)N[C@@H](CCCCN)C(=O)NCC(=O)N[C@@H](CO)C(=O)N[C@@H](CS)C(=O)N[C@@H](CCCCN)C(=O)N[C@@H](Cc1ccc(O)cc1)C(=O)N[C@@H](C)C(=O)N[C@@H](CC(C)C)C(=O)N1CCC[C@H]1C(=O)N[C@@H](CC(C)C)C(=O)N[C@@H](CCCNC(=N)N)C(=O)N[C@H](C(=O)N1CCC[C@H]1C(=O)N1CCC[C@H]1C(=O)N[C@@H](CO)C(=O)N[C@@H](C)C(=O)N[C@@H](CS)C(=O)N[C@@H](CC(C)C)C(=O)N[C@@H](CO)C(=O)N1CCC[C@H]1C(=O)N[C@@H](CCC(N)=O)C(=O)O)[C@@H](C)CC)[C@@H](C)CC)[C@@H](C)O [HSV 38],–,–,–,–,–,–,–,–,–,–,–,–,–,–,–,–,–,–,–,8,–
